From patent US6323014A, “Method and composition for enhancing the activity of an enzyme” (Unilever Home & Personal Care division of Conopco, Inc., priority 1999, dated 2001) come the findings set out here.

In experiment [1] the test system is phenol oxidizing enzyme from Acremonium murorum. Nature of the experiment: Bleaching of tomato stains on cotton swatches, phenol oxidizing enzyme/enhancer system, 50 mM Tris buffer wash solution. To be noted: enhancer 250 μM, 50 mM Tris buffer pH 9, 30 minutes, 30° C.; for ΔE, stain bleach performance, Oily Tomato Stain, With enzyme / ΔE, stain bleach performance, Tomato Extract, With enzyme: enzyme 20 mg/l. The format is biochemical. The protocol:
(§1) The potential of the various enhancer to boost the bleach performance of phenol oxidizing enzyme was assessed by washing cotton swatches soiled with tomato stains. Two different bleach monitors were used:
(§2) Tomato extract material was prepared by acetone extraction of the chromophores from concentrated tomato paste. For the preparation of the stains, the colored acetone solution was applied to cotton swatches.
(§3) Oily tomato stains were prepared by applying heated concentrated tomato paste, to which 5 wt % Soya oil was added, to cotton swatches.
(§4) The pH of the wash solution was set to pH 9. Purified phenol oxidizing enzyme from Acremonium murorum was added to the wash solution at 20 mg/l. The enzyme from Acremonium murorum is decribed in WO-A-00/05349 (Unilever). The enhancers were all dosed at 250 μM. The wash solution was 50 mM Tris buffer.
(§5) The swatches were washed during 30 minutes, at 30° C. After the wash, the swatches were tumble-dried and the reflectance spectra were measured using a Minolta spectrometer. The color differences between the swatch before and after the wash data were expressed in the CIELAB L*a*b* color space. In this color space, L* indicates lightness and a* and b* are the chromaticity coordinates. Color differences between two swatches are expressed as ΔE, which is calculated from the following equation: […]

The test system is the same in experiment [2]. Nature of the experiment: Bleaching of tomato stains on cotton swatches, phenol oxidizing enzyme/enhancer system, detergent formulation wash solution. To be noted: enhancer 250 μM, detergent formulation 2 g/l, 30 minutes, 30° C.; for ΔE, stain bleach performance, Oily Tomato Stain, With enzyme / ΔE, stain bleach performance, Tomato Extract, With enzyme: enzyme 20 mg/l. The format is biochemical. The protocol:
as §1, §2, §3, §4, §5
Example 1 was repeated, using this time as wash solution a detergent formulation having the composition shown below, at a concentration of 2 g/l. The amounts are given in weight %.

As for `Cc1ccc(S(=O)(=O)Nc2cc(Br)c(O)c(Br)c2Br)cc1` [3Brphenol3MeBSA, N-(2,3,5-tribromo-4-hydroxyphenyl) -4-Methyl benzenesulfonamide], in experiment [1], the “ΔE, stain bleach performance, Oily Tomato Stain, With enzyme” value worked out at 6.21; the “ΔE, stain bleach performance, Oily Tomato Stain, Without enzyme” value is given as 1.56; the “ΔE, stain bleach performance, Tomato Extract, With enzyme” value turned out to be 19.59; the “ΔE, stain bleach performance, Tomato Extract, Without enzyme” value was found to be 10.86. In experiment [2], the “ΔE, stain bleach performance, Oily Tomato Stain, With enzyme” value was 11.71; the “ΔE, stain bleach performance, Oily Tomato Stain, Without enzyme” value is recorded as 6.87; the “ΔE, stain bleach performance, Tomato Extract, With enzyme” value is recorded as 27.57; the “ΔE, stain bleach performance, Tomato Extract, Without enzyme” value came out at 12.86.
Regarding `O=S(=O)(Nc1cc(Br)c(O)c(Br)c1Br)c1ccccc1` [3BrphenolBSA, N-(2,3,5-tribromo-4-hydroxyphenyl)-benzenesulfonamide], in experiment [1], the “ΔE, stain bleach performance, Oily Tomato Stain, With enzyme” value amounted to 5.62; the “ΔE, stain bleach performance, Oily Tomato Stain, Without enzyme” value is recorded as 4.18; the “ΔE, stain bleach performance, Tomato Extract, With enzyme” value is 19.97; the “ΔE, stain bleach performance, Tomato Extract, Without enzyme” value is recorded as 10.33. Besides, in experiment [2], the “ΔE, stain bleach performance, Oily Tomato Stain, With enzyme” value came to 10.95; the “ΔE, stain bleach performance, Oily Tomato Stain, Without enzyme” value is 6.89; the “ΔE, stain bleach performance, Tomato Extract, With enzyme” value came to 26.87; the “ΔE, stain bleach performance, Tomato Extract, Without enzyme” value was found to be 12.99.
